In ChEMBL document CHEMBL5715260, “Selectivity Literature for EUbOPEN Chemogenomic Library” (2024):

Tests used:
[1] = biological target: DNA (cytosine-5)-methyltransferase 3A (Homo sapiens) (UniProt Q9Y6K1); conditions: at 50 µM
[2] = biological target: DNA (cytosine-5)-methyltransferase 3A (Homo sapiens) (UniProt Q9Y6K1); conditions: at 50 µM; remark: listed apart in the source
[3] = biological target: DNA (cytosine-5)-methyltransferase 3B (Homo sapiens) (UniProt Q9UBC3); experiment: (§1) Selectivity interaction (Enzymatic assay (human methyltransferases)) EUB0002223a DNMT3B; set-up: recommended concentration 1 uM; conditions: at 50 µM
[4] = biological target: DNA (cytosine-5)-methyltransferase 3A (Homo sapiens) (UniProt Q9Y6K1); conditions: at 50 µM; remark: listed apart in the source
[5] = biological target: DNA (cytosine-5)-methyltransferase 3B (Homo sapiens) (UniProt Q9UBC3); experiment: as §1; set-up: recommended concentration 1 uM; conditions: at 50 µM; remark: listed apart in the source
[6] = biological target: DNA (cytosine-5)-methyltransferase 3B (Homo sapiens) (UniProt Q9UBC3); experiment: as §1; set-up: recommended concentration 1 uM; conditions: at 50 µM; remark: listed apart in the source
[7] = biological target: DNA (cytosine-5)-methyltransferase 3B (Homo sapiens) (UniProt Q9UBC3); experiment: as §1; set-up: recommended concentration 1 uM; conditions: at 50 µM; remark: listed apart in the source
[8] = biological target: DNA (cytosine-5)-methyltransferase 3A (Homo sapiens) (UniProt Q9Y6K1); conditions: at 50 µM; remark: listed apart in the source
[9] = biological target: T1, Nuclear receptor subfamily 2 group C member 1 (Homo sapiens) (UniProt P13056); experiment: Selectivity interaction (Reporter gene assay) EUB0001169a NR2C1; set-up: recommended concentration 1 uM
T1 sequence (whole entry): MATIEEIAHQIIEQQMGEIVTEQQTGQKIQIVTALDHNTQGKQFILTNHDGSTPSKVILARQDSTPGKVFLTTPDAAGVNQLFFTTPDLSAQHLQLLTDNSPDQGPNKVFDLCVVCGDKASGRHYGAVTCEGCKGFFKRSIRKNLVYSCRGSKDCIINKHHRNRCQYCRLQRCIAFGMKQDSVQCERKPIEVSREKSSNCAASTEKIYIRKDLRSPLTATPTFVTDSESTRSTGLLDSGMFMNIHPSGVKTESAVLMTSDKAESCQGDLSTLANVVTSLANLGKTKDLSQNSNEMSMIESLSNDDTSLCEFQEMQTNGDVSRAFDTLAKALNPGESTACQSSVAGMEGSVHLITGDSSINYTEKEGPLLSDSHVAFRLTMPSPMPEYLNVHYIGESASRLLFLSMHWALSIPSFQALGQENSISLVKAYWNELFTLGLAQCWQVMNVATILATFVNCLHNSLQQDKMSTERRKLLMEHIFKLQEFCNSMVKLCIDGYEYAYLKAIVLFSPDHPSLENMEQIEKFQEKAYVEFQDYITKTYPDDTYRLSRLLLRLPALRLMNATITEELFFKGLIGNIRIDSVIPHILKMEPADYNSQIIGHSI

[10] = biological target: Nuclear receptor subfamily 4immunitygroup A member 1 (Homo sapiens) (UniProt P22736); experiment: Selectivity interaction (Reporter gene assay) EUB0001169a NR4A1; set-up: recommended concentration 1 uM
Sequence of Nuclear receptor subfamily 4immunitygroup A member 1 (Homo sapiens) (P22736 whole entry): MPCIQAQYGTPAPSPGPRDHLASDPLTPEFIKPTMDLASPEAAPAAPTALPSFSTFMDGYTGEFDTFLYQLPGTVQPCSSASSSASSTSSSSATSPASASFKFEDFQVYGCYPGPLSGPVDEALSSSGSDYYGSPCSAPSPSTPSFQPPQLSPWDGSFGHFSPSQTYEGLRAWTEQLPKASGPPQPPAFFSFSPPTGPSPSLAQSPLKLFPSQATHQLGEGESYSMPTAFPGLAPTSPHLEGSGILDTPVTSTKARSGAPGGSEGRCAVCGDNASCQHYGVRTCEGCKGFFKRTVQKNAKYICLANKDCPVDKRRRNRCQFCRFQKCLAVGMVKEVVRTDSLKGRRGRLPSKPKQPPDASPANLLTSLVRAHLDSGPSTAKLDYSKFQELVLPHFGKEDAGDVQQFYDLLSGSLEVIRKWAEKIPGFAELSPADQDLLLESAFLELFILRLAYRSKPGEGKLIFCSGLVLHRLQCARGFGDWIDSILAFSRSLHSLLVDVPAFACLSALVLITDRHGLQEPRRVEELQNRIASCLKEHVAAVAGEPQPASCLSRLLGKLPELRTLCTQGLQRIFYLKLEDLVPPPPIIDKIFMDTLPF

[11] = biological target: Nuclear receptor subfamily 2 group E member 1 (Homo sapiens) (UniProt Q9Y466); experiment: Selectivity interaction (Reporter gene assay) EUB0001169a NR2E1; set-up: recommended concentration 1 uM
Sequence of Nuclear receptor subfamily 2 group E member 1 (Homo sapiens) (Q9Y466 whole entry): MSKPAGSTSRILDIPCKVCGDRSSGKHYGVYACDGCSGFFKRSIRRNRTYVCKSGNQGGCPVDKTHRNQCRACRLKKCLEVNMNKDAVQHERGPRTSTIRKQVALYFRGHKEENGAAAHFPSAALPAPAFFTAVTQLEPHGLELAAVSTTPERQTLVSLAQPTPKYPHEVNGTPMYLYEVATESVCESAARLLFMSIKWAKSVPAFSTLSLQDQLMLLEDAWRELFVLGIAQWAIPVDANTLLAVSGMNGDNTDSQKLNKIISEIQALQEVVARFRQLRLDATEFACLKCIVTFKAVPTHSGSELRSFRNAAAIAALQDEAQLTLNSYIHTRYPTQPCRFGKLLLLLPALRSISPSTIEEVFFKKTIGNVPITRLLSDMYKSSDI

[12] = biological target: T2, Hepatocyte nuclear factor 4-alpha (Homo sapiens) (UniProt P41235); experiment: Selectivity interaction (Reporter gene assay) EUB0001169a HNF4A; set-up: recommended concentration 1 uM
T2 sequence (whole entry): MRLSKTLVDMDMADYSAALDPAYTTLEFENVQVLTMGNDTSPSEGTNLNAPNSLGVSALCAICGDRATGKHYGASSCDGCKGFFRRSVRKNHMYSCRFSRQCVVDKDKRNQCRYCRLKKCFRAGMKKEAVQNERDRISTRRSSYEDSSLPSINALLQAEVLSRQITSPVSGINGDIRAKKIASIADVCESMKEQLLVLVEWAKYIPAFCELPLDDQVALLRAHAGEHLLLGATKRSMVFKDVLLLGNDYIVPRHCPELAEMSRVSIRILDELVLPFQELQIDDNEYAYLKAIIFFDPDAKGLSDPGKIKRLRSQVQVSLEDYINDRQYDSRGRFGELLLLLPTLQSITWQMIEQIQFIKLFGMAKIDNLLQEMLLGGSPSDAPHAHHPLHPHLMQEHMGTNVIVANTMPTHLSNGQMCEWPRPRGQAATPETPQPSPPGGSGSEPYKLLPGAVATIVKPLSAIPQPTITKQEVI

[13] = biological target: T3, Alpha trans-inducing protein (Human alphaherpesvirus 1) (UniProt A0A5J6DW59); experiment: Selectivity interaction (Reporter gene assay) EUB0001169a UL48; set-up: recommended concentration 1 uM
T3 sequence (A0A5J6DW59 as listed by the source): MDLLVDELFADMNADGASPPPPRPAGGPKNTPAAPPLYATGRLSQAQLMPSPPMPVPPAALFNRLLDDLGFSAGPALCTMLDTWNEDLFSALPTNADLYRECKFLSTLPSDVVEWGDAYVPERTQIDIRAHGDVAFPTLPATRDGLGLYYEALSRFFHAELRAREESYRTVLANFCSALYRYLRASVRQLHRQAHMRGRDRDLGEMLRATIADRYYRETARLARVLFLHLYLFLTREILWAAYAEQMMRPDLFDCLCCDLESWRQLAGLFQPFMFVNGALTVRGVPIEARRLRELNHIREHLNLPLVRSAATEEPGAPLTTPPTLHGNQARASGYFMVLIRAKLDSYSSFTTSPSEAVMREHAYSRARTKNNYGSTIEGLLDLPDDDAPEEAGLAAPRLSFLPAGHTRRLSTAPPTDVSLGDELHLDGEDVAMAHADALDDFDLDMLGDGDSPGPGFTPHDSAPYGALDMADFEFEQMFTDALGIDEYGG

[14] = biological target: T4, Retinoic acid receptor RXR-alpha (Homo sapiens) (UniProt P19793); experiment: Selectivity interaction (Reporter gene assay) EUB0001169a RXRA; set-up: recommended concentration 1 uM
T4 sequence (whole entry): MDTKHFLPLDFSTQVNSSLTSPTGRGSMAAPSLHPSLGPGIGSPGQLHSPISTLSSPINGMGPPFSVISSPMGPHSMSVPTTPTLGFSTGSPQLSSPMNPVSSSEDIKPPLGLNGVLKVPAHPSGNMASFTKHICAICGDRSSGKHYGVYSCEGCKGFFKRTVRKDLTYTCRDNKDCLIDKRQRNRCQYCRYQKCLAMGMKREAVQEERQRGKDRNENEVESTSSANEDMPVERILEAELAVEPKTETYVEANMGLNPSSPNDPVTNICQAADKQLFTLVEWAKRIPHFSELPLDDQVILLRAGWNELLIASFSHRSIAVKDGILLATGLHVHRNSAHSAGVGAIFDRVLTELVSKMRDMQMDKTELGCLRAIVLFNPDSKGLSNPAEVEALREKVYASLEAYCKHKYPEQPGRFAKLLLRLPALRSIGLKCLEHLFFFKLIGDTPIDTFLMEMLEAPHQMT

[15] = biological target: Steroidogenic factor 1 (Homo sapiens) (UniProt Q13285); experiment: Selectivity interaction (Reporter gene assay) EUB0001169a NR5A1; set-up: recommended concentration 1 uM; conditions: screened at recom. conc., Selectivity number of off-targets 1.0, Selectivity number of targets 5.0, Source Knowledge inhouse
Sequence of Steroidogenic factor 1 (Homo sapiens) (Q13285 whole entry): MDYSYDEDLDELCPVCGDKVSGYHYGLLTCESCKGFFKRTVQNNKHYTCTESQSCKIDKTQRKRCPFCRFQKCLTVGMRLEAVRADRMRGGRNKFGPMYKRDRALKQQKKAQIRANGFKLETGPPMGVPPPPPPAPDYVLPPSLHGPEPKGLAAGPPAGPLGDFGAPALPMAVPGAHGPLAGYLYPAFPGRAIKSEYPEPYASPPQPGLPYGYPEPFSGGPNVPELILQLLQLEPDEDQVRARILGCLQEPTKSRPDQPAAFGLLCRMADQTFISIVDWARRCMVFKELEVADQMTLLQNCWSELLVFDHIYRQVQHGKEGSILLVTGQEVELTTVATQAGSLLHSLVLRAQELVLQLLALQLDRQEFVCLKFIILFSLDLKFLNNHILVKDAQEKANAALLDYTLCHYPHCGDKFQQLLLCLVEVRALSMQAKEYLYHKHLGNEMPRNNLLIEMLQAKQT

[16] = biological target: Nuclear receptor subfamily 4immunitygroup A member 1 (Homo sapiens) (UniProt P22736); experiment: Selectivity interaction (Reporter gene assay) EUB0001174a NR4A1; set-up: recommended concentration 1 uM
[17] = biological target: Nuclear receptor subfamily 2 group E member 1 (Homo sapiens) (UniProt Q9Y466); experiment: Selectivity interaction (Reporter gene assay) EUB0001174a NR2E1; set-up: recommended concentration 1 uM; conditions: screened at recom. conc., Selectivity number of off-targets 1.0, Selectivity number of targets 5.0, Source Knowledge inhouse
[18] = biological target: T1, Nuclear receptor subfamily 2 group C member 1 (Homo sapiens); experiment: Selectivity interaction (Reporter gene assay) EUB0001174a NR2C1; set-up: recommended concentration 1 uM
[19] = biological target: Oxysterols receptor LXR-alpha (Homo sapiens) (UniProt Q13133); experiment: Selectivity interaction (Reporter gene assay) EUB0001174a NR1H3; set-up: recommended concentration 1 uM; conditions: screened at recom. conc., Selectivity number of off-targets 1.0, Selectivity number of targets 19.0, Source Knowledge inhouse
Sequence of Oxysterols receptor LXR-alpha (Homo sapiens) (Q13133 whole entry): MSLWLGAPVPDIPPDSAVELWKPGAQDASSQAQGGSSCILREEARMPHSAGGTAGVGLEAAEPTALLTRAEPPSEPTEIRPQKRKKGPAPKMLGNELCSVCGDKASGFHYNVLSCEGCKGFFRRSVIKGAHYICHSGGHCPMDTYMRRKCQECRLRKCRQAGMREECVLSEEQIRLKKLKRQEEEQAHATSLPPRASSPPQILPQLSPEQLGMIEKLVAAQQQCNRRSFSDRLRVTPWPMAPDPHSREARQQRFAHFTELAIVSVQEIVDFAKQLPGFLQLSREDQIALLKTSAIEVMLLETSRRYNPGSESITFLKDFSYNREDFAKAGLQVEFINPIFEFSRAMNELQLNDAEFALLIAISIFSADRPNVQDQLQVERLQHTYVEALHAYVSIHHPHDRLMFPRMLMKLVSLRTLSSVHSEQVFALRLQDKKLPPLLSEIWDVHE

[20] = biological target: T2, Hepatocyte nuclear factor 4-alpha (Homo sapiens); experiment: Selectivity interaction (Reporter gene assay) EUB0001174a HNF4A; set-up: recommended concentration 1 uM
[21] = biological target: Steroidogenic factor 1 (Homo sapiens) (UniProt Q13285); experiment: Selectivity interaction (Reporter gene assay) EUB0001174a NR5A1; set-up: recommended concentration 1 uM
[22] = biological target: T4, Retinoic acid receptor RXR-alpha (Homo sapiens); experiment: Selectivity interaction (Reporter gene assay) EUB0001174a RXRA; set-up: recommended concentration 1 uM; conditions: reference bexarotene 1 uM, Selectivity number of off-targets 0.0, Selectivity number of targets 1.0, Source Knowledge inhouse
[23] = biological target: T3, Alpha trans-inducing protein (Human alphaherpesvirus 1); experiment: Selectivity interaction (Reporter gene assay) EUB0001174a UL48; set-up: recommended concentration 1 uM
[24] = biological target: T5, Oxysterols receptor LXR-beta (Homo sapiens) (UniProt P55055); experiment: Selectivity interaction (Reporter gene assay) EUB0001174a NR1H2; set-up: recommended concentration 1 uM; conditions: screened at recom. conc., Selectivity number of off-targets 1.0, Selectivity number of targets 19.0, Source Knowledge inhouse
T5 sequence (whole entry): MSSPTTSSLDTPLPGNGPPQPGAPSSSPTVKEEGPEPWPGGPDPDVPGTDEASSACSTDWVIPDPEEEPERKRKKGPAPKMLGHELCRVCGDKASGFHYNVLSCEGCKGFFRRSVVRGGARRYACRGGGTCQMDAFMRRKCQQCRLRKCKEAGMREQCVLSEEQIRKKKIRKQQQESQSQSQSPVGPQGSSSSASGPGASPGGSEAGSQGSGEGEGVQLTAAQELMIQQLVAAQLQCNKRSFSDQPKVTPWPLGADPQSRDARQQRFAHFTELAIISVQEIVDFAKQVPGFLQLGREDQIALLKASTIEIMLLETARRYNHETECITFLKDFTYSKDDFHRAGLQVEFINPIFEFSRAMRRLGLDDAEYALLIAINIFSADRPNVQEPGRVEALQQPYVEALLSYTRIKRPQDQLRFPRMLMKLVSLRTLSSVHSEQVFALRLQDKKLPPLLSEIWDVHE

[25] = biological target: Steroidogenic factor 1 (Homo sapiens) (UniProt Q13285); experiment: Selectivity interaction (Reporter gene assay) EUB0001482aCl NR5A1; set-up: recommended concentration 10 uM
[26] = biological target: T2, Hepatocyte nuclear factor 4-alpha (Homo sapiens); experiment: Selectivity interaction (Reporter gene assay) EUB0001482aCl HNF4A; set-up: recommended concentration 10 uM
[27] = biological target: Nuclear receptor subfamily 4immunitygroup A member 1 (Homo sapiens) (UniProt P22736); experiment: Selectivity interaction (Reporter gene assay) EUB0001482aCl NR4A1; set-up: recommended concentration 10 uM
[28] = biological target: T4, Retinoic acid receptor RXR-alpha (Homo sapiens); experiment: Selectivity interaction (Reporter gene assay) EUB0001482aCl RXRA; set-up: recommended concentration 10 uM; conditions: reference bexarotene 1 uM, Selectivity number of off-targets 0.0, Selectivity number of targets 1.0, Source Knowledge inhouse
[29] = biological target: T3, Alpha trans-inducing protein (Human alphaherpesvirus 1); experiment: Selectivity interaction (Reporter gene assay) EUB0001482aCl UL48; set-up: recommended concentration 10 uM
[30] = biological target: T1, Nuclear receptor subfamily 2 group C member 1 (Homo sapiens); experiment: Selectivity interaction (Reporter gene assay) EUB0001482aCl NR2C1; set-up: recommended concentration 10 uM
[31] = biological target: Nuclear receptor subfamily 2 group E member 1 (Homo sapiens) (UniProt Q9Y466); experiment: Selectivity interaction (Reporter gene assay) EUB0001482aCl NR2E1; set-up: recommended concentration 10 uM
[32] = biological target: Nuclear receptor subfamily 4immunitygroup A member 1 (Homo sapiens) (UniProt P22736); experiment: Selectivity interaction (Reporter gene assay) EUB0001483aCl NR4A1; set-up: recommended concentration 10 uM
[33] = biological target: T1, Nuclear receptor subfamily 2 group C member 1 (Homo sapiens); experiment: Selectivity interaction (Reporter gene assay) EUB0001483aCl NR2C1; set-up: recommended concentration 10 uM
[34] = biological target: Steroidogenic factor 1 (Homo sapiens) (UniProt Q13285); experiment: Selectivity interaction (Reporter gene assay) EUB0001483aCl NR5A1; set-up: recommended concentration 10 uM
[35] = biological target: T3, Alpha trans-inducing protein (Human alphaherpesvirus 1); experiment: Selectivity interaction (Reporter gene assay) EUB0001483aCl UL48; set-up: recommended concentration 10 uM
[36] = biological target: Nuclear receptor subfamily 2 group E member 1 (Homo sapiens) (UniProt Q9Y466); experiment: Selectivity interaction (Reporter gene assay) EUB0001483aCl NR2E1; set-up: recommended concentration 10 uM
[37] = biological target: T2, Hepatocyte nuclear factor 4-alpha (Homo sapiens); experiment: Selectivity interaction (Reporter gene assay) EUB0001483aCl HNF4A; set-up: recommended concentration 10 uM
[38] = biological target: T4, Retinoic acid receptor RXR-alpha (Homo sapiens); experiment: Selectivity interaction (Reporter gene assay) EUB0001483aCl RXRA; set-up: recommended concentration 10 uM; conditions: reference bexarotene 1 uM, Selectivity number of off-targets 0.0, Selectivity number of targets 1.0, Source Knowledge inhouse

Sequence of DNA (cytosine-5)-methyltransferase 3A (Homo sapiens) (Q9Y6K1 whole entry, looked up): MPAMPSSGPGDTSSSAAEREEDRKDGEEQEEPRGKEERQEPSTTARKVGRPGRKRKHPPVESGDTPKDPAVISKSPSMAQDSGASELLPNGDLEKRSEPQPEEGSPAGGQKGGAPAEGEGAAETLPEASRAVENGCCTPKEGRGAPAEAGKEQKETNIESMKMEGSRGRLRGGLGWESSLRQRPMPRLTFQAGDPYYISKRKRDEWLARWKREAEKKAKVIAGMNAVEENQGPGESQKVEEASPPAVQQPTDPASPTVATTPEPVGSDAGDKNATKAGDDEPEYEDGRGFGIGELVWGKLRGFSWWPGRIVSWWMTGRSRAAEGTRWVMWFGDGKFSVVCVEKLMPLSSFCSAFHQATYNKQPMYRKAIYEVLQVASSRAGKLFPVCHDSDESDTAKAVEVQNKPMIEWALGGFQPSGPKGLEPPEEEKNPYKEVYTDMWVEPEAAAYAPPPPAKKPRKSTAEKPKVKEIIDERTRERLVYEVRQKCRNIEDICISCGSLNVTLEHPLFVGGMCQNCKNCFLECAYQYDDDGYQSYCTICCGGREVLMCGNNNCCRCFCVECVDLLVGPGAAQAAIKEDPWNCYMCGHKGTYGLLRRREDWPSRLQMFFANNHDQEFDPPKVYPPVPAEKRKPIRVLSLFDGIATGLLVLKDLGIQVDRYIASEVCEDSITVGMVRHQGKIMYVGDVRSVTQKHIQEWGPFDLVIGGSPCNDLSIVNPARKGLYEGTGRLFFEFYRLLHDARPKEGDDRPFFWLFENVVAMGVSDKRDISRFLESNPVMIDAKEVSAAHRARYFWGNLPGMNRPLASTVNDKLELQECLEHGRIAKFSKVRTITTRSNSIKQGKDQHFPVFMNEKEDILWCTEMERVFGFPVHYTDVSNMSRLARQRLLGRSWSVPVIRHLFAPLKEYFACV

## CCNC(=O)NCCSC[C@H]1O[C@@H](n2cnc3c(N)ncnc32)[C@H](O)[C@@H]1O
[1]
  Enzyme activity: 38%
[2]
  Enzyme activity: 38%
[3]
  Enzyme activity: 45%
[4]
  Enzyme activity: 38%
[5]
  Enzyme activity: 45%
[6]
  Enzyme activity: 45%
[7]
  Enzyme activity: 45%
[8]
  Enzyme activity: 38%

## O=C(O)c1cc(F)c2nc(N3[C@@H]4CC[C@H]3C[C@@H](OCc3c(-c5ccccc5OC(F)(F)F)noc3C3CC3)C4)sc2c1
[9]
  Fold activation: 1.28
[10]
  Remaining activity: 0.696
[11]
  Remaining activity: 0.961
[12]
  Remaining activity: 0.655
[13]
  P-value: 0.00151
[14]
  Relative activation: 0.815%
[15]
  Remaining activity: 0.47

## COc1cccc(Cn2cc(C(=O)Nc3ccc(C)c(S(=O)(=O)N4CCOCC4)c3)c(-c3ccc(C)cc3)n2)c1
[16]
  Remaining activity: 0.847
[17]
  Remaining activity: 0.432
[18]
  Remaining activity: 0.543
[19]
  Remaining activity: 0.724
[20]
  Fold activation: 1.1
[21]
  Remaining activity: 0.982
[22]
  Relative activation: 0.49%
[23]
  P-value: 1.23e-07
[24]
  Remaining activity: 0.617

## C[C@H](CCOc1cccc(CC(=O)O)c1)N(Cc1cccc(C(F)(F)F)c1Cl)CC(c1ccccc1)c1ccccc1
[25]
  Fold activation: 1.11
[26]
  Fold activation: 1.02
[27]
  Fold activation: 1.25
[28]
  Relative activation: 0.905%
[29]
  P-value: 0.0185
[30]
  Fold activation: 1.42
[31]
  Fold activation: 1.41

## CN1CCN(c2ccc(/C=C(\C#N)c3ccccc3Br)cc2)CC1
[32]
  Fold activation: 1.35
[33]
  Fold activation: 1.32
[34]
  Fold activation: 1.5
[35]
  P-value: 7.2e-05
[36]
  Fold activation: 1.32
[37]
  Fold activation: 1.03
[38]
  Relative activation: 1.47%
